Laboratory results as given in ChEMBL document CHEMBL1127377, “2-Substitution of N6-benzyladenosine-5'-uronamides enhances selectivity for A3 adenosine receptors” (J Med Chem, 1994).

Tests used:
Adenosine receptor A2a = Adenosine receptor A2a (Rattus norvegicus, UniProt P30543)
Adenosine receptor A1 = biological target: T1, Adenosine receptor A1 (Rattus norvegicus, UniProt P25099)
T1 sequence (P25099 whole entry): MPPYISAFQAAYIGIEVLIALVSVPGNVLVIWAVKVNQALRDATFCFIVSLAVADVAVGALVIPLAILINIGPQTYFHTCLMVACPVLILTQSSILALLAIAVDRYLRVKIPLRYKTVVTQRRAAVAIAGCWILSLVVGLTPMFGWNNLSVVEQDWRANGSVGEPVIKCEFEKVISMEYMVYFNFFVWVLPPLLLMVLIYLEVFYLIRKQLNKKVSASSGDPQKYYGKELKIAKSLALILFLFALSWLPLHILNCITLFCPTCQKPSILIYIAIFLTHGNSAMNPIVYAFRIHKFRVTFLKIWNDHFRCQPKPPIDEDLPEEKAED
Description: Tested for the binding affinity of A1 receptor by displacing the [3H]-PIA in rat brain membranes

Adenosine receptor A3 = biological target: T2, Adenosine receptor A3 (Rattus norvegicus, UniProt P28647); assay: biochemical
T2 sequence (P28647 whole entry): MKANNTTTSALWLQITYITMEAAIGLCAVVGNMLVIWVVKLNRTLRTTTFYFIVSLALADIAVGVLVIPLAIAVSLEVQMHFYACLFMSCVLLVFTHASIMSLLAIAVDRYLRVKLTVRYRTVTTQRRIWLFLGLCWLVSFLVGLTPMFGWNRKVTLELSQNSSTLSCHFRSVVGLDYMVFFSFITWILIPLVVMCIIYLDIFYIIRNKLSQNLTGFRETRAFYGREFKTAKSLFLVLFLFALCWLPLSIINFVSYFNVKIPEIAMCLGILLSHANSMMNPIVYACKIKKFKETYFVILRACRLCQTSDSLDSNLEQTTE
Description: Tested for the binding affinity of A3 receptor by displacing N6-[[125I]-4-amino-3-iodobenzyl]-adenosine-5''-N-methyluronamide from membranes of CHO cells transfected with rat A3-cDNA

Adenosine receptor A2a, sequence (P30543 whole entry): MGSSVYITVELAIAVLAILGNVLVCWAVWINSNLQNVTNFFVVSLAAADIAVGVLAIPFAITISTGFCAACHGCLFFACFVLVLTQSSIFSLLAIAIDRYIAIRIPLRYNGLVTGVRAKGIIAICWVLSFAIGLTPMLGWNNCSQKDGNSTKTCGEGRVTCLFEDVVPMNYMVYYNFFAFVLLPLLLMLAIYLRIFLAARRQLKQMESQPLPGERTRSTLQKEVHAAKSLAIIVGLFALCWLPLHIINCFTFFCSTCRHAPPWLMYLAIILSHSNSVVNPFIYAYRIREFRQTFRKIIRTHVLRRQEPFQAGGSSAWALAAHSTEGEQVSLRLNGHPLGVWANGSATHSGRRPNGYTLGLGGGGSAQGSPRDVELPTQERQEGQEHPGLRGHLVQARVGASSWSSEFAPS

Ki (Adenosine receptor A2a) | Ki (Adenosine receptor A1) | Ki (Adenosine receptor A3) | Compound
462 nM |  |  | OC[C@H]1O[C@@H](n2cnc3c(NC4CCCC4)ncnc32)[C@H](O)[C@@H]1O [N6-CYCLOPENTYLADENOSINE]
 | 2.1 nM | 15.5 nM | Nc1ccc(CCNc2ncnc3c2ncn3C2O[C@H](CO)[C@@H](O)[C@H]2O)cc1I (stereo not given in full)
 | 14 nM |  | Nc1ccc(CCNc2ncnc3c2ncn3[C@@H]2O[C@H](CO)[C@@H](O)[C@H]2O)cc1
197 nM |  |  | CNC(=O)[C@H]1O[C@@H](n2cnc3c(NCc4ccc(N)c(I)c4)ncnc32)[C@H](O)[C@@H]1O
